Source: the supplement of paper PMC10307832

Legend:
Assay in all cases: relative viability (nuclei count vs DMSO), 5 days (fraction); higher = more cells survive
Crenolanib + Vorinostat = compound: CC1(COc2ccc3c(c2)ncn3-c2ccc3cccc(N4CCC(N)CC4)c3n2)COC1 [Crenolanib] + O=C(CCCCCCC(=O)Nc1ccccc1)NO [Vorinostat] (partner 1 µM)
Procedure, shortened: (§1)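 Lung cancer cell lines were seeded in 1536-well plates and dosed by pin tool the next day, with either a single drug or a fixed anchor-drug dose combined with five library-drug doses (not always all listed) spaced in √10 steps. Five days later, one step fixed the cells and stained their nuclei (final 0.05% Triton X-100, 1% formaldehyde, 1 ug/ml Hoechst), and nuclei were counted on 4× images. Relative viability is the nuclei count in treated wells divided by the count in vehicle wells, and each value is the median of duplicate plates.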

Crenolanib + Phenformin = compound: CC1(COc2ccc3c(c2)ncn3-c2ccc3cccc(N4CCC(N)CC4)c3n2)COC1 [Crenolanib] + N=C(N)NC(=N)NCCc1ccccc1 [Phenformin] (partner 250 µM)
Procedure, shortened: as §1

Tivantinib + Vorinostat = compound: O=C1NC(=O)[C@@H](c2cn3c4c(cccc24)CCC3)[C@@H]1c1c[nH]c2ccccc12 [Tivantinib] + O=C(CCCCCCC(=O)Nc1ccccc1)NO [Vorinostat] (partner 1 µM)
Procedure, shortened: as §1

Tivantinib + Lapatinib = compound: O=C1NC(=O)[C@@H](c2cn3c4c(cccc24)CCC3)[C@@H]1c1c[nH]c2ccccc12 [Tivantinib] + CS(=O)(=O)CCNCc1ccc(-c2ccc3ncnc(Nc4ccc(OCc5cccc(F)c5)c(Cl)c4)c3c2)o1 [Lapatinib] (partner 2 µM)
Procedure, shortened: as §1

Cell Line	relative viability (Crenolanib + Vorinostat; first compound 0.01 µM)	relative viability (Crenolanib + Vorinostat; first compound 0.03162 µM)	relative viability (Crenolanib + Vorinostat; first compound 0.1 µM)	relative viability (Crenolanib + Vorinostat; first compound 0.3162 µM)	relative viability (Crenolanib + Vorinostat; first compound 1 µM)	relative viability (Crenolanib + Phenformin; first compound 0.01 µM)	relative viability (Crenolanib + Phenformin; first compound 0.03162 µM)	relative viability (Crenolanib + Phenformin; first compound 0.1 µM)	relative viability (Crenolanib + Phenformin; first compound 0.3162 µM)	relative viability (Crenolanib + Phenformin; first compound 1 µM)	relative viability (Tivantinib + Vorinostat; first compound 0.01 µM)	relative viability (Tivantinib + Vorinostat; first compound 0.03162 µM)	relative viability (Tivantinib + Vorinostat; first compound 0.1 µM)	relative viability (Tivantinib + Vorinostat; first compound 0.3162 µM)	relative viability (Tivantinib + Lapatinib; first compound 0.01 µM)	relative viability (Tivantinib + Lapatinib; first compound 0.03162 µM)	relative viability (Tivantinib + Lapatinib; first compound 0.1 µM)	relative viability (Tivantinib + Lapatinib; first compound 0.3162 µM)
LC-2-ad	0.726	0.674	0.67	0.736	0.679	0.648	0.562	0.573	0.536	0.446	0.694	0.694	0.655	0.715	1.03	0.929	0.928	1.06
NCI-H441	0.98	0.705	0.657	1	0.832	0.771	0.881	0.955	0.936	0.633	0.844	0.762	0.563	0.708				
NCI-H322M	0.872	0.789	0.872	0.808	0.784	0.794	0.802	0.755	0.835	0.803	0.903	0.833	0.861		0.568	0.488	0.609	0.588
EPLC-272H	0.435	0.622	0.469	0.308	0.584	0.356	0.331	0.224	0.375	0.382	0.493	0.599	0.41	0.296	1.08	0.711	0.846	0.383
COR-L23	0.553	0.559	0.394	0.5	0.476	0.444	0.417	0.47	0.427	0.397	0.528	0.509	0.426	0.608	1.12	0.975	0.894	0.922
NCI-H2126	0.8	0.836	0.691	0.815	0.684	0.533	0.536	0.51	0.51	0.455	0.723	0.482	0.772	0.512	0.799	0.737	0.77	0.799
LCLC-103H	0.752	0.791	0.754	0.811	0.746	0.316	0.329	0.295	0.34	0.352	0.756	0.642	0.749	0.936				
NCI-H1975	0.729	0.684	0.638	0.71	0.678	0.419	0.402	0.389	0.429	0.409	0.752	0.754	0.685	0.77	0.943	0.863	0.795	1.1
NCI-H1793	0.8	0.741	0.698	0.863	0.698	0.453	0.38	0.376	0.288	0.364	0.851	0.875	0.663	0.474	0.836	0.735	0.651	
NCI-H2085		0.764	0.809	0.781	0.759	0.742	0.745	0.63	0.7	0.631	0.805	0.673	0.752	0.669	0.824	0.77	0.765	0.82
COR-L 105	0.842	0.957	0.904	1.08	0.922	0.625	0.474	0.497	0.5	0.547	0.89	0.786	0.722	0.771	0.412	0.359	0.29	0.359
SK-LU-1	0.735	0.863	0.603	0.811	0.795	0.61	0.545	0.39	0.514	0.517	0.742	0.764	0.65	0.836	1.06	0.856	0.835	0.855
NCI-H1299															0.967	0.952	0.988	0.924
PC-3 [JPC-3]	0.75		0.824	0.7	0.582	0.487	0.494	0.46	0.474	0.458	0.791	0.979	0.891	0.807	0.433	0.546	0.424	0.486
NCI-H661	0.772	0.778	0.813	0.845	0.846	0.284	0.275	0.289	0.283	0.289	0.849	0.792	0.752	0.659	0.579	0.46	0.474	
NCI-H1703															1.3	0.94	1.06	1.06
ChaGo-K-1	0.721	0.81	0.724	0.745	0.793	0.533	0.495	0.536	0.42	0.497	0.76	0.704	0.704	0.717				
NCI-H522	1	0.876	0.855	0.92	0.8	0.706	0.641	0.756	0.656	0.675	0.906	0.754	0.973	0.548				
NCI-H1648	0.599		0.293	0.466	0.433							0.445	0.528	0.272				
NCI-H1563						0.615	0.66	0.699	0.607	0.672					1.05	0.894	0.831	0.908
NCI-H2342	0.729	0.682	0.688	0.788	0.691	0.724	0.525	0.556	0.652	0.64	0.739	0.766	0.788	0.614				
SW 900	0.548		0.428	0.574	0.435	0.81	0.697	0.55	0.416	0.585	0.501	0.438	0.593	0.444				
A549						0.193	0.185	0.165	0.103	0.145					1	1.02	0.911	0.935
